From US20260325533A1, “CDK INHIBITOR COMPOUNDS” (ALEKSIA THERAPEUTICS, INC., priority 2023, published 2026)
Read-outs that look alike come from different tables or passages of the source. Values belong to the molecule of their own block, whether it stands above or below them.

Tests used:
Type in all cases: biochemical
[1] = molecular target: CDK1/CCNB1 (Homo sapiens, UniProt P06493); test: CDK1 homogeneous time-resolved fluorescence (HTRF) kinase assay; conditions: CDK1/CCNB
Summary of the method: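 0.5 nM CDK1/CCNB1 was preincubated 20 min at 23 °C with compound in HEPES pH-unspecified buffer (MgCl2, EGTA, DTT, Tween 20), then reacted 60 min with 1 mM ATP and 50 nM ULight-4E-BP1 (Thr37/46) peptide. EDTA-stopped reactions were detected with 2 nM Eu-anti-phospho antibody; IC50 from 11-point half-log titrations.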

[2] = molecular target: CDK4/CCND3 (Homo sapiens, UniProt P11802); test: CDK4 homogeneous time-resolved fluorescence (HTRF) kinase assay; conditions: CDK4/CCND
Summary of the method: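 TR-FRET read (665 nm, or 665/615 ratio) of 4E-BP1 Thr37/46 phosphorylation by 1.5 nM CDK4/CCND3 at 1 mM ATP, 50 nM ULight peptide, 1% DMSO. Reaction ran 60 min at 23 °C after 20 min compound–enzyme preincubation. IC50 from 11-point half-log dilutions, top 10 μM.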

[3] = molecular target: CDK6/CCND1 (Homo sapiens, UniProt Q00534); test: CDK6 homogeneous time-resolved fluorescence (HTRF) kinase assay; conditions: CDK6/CCND
Summary of the method: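 Assay conditions: HEPES buffer containing 10 mM MgCl2, 1 mM EGTA, 2 mM DTT, 0.01% Tween 20; 1 nM CDK6/CCND1, 50 nM peptide substrate, 1 mM ATP. Detection after 60 min reaction used 2 nM europium antibody with 340 nm excitation. Potency fitted from half-log series, 11 points.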

[4] = molecular target: CDK2/CCNE1 (Homo sapiens, UniProt P24941); test: CDK2 homogeneous time-resolved fluorescence (HTRF) kinase assay; conditions: CDK2/CCNE
Summary of the method: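 IC50 derived from 11-point, half-log dilutions (usually top 10 μM) of compound, 1% DMSO. Kinase (3 nM CDK2/CCNE1) was preincubated with compound 20 min, then phosphorylated 50 nM ULight-4E-BP1 peptide at 1 mM ATP for 60 min, 23 °C. Europium-antibody TR-FRET read after EDTA stop.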

[5] = >250 nM, read-out: CDK1/CCNB IC50 >250 nM
[6] = >250 nM, read-out: CDK4/CCND IC50, >250 nM
[7] = >250 nM, 1 mM ATP, read-out: CDK6/CCND IC50, >250 nM
[8] = 25-250 nM, read-out: CDK2/CCNE IC50, 25-250 nM
[9] = <25 nM, read-out: CDK2/CCNE IC50, <25 nM
[10] = 25-250 nM, read-out: CDK4/CCND IC50, 25-250 nM
[11] = 25-250 nM, 1 mM ATP, read-out: CDK6/CCND IC50, 25-250 nM
[12] = >250 nM marked x, read-out: CDK1/CCNB IC50 >250 nM
[13] = >250 nM marked x, read-out: CDK4/CCND IC50 >250 nM
[14] = >250 nM marked x, read-out: CDK6/CCND IC50 >250 nM
[15] = >250 nM marked x, read-out: CDK2/CCNE IC50 >250 nM
[16] = x = IC50 >250 nM, read-out: CDK1/CCNB IC50 (>250 nM column)
[17] = x = IC50 >250 nM, read-out: CDK4/CCND IC50 (>250 nM column)
[18] = x = IC50 >250 nM, read-out: CDK6/CCND IC50 (>250 nM column)
[19] = x = IC50 <25 nM, read-out: CDK2/CCNE IC50 (<25 nM)
[20] = x = IC50 25-250 nM, read-out: CDK2/CCNE IC50 (25-250 nM)
[21] = x = IC50 25-250 nM, read-out: CDK1/CCNB IC50 (25-250 nM)

Chain of CDK4/CCND3 (P11802 whole entry): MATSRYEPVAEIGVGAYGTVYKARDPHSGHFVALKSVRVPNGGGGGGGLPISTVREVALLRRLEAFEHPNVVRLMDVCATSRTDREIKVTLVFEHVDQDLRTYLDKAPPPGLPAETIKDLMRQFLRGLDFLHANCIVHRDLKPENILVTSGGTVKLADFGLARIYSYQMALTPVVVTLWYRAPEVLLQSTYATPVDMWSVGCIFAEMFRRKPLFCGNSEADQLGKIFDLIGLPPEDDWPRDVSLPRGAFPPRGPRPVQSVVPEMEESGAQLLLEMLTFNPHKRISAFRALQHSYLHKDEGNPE
Chain of CDK4/CCND3 (P30281 whole entry partner): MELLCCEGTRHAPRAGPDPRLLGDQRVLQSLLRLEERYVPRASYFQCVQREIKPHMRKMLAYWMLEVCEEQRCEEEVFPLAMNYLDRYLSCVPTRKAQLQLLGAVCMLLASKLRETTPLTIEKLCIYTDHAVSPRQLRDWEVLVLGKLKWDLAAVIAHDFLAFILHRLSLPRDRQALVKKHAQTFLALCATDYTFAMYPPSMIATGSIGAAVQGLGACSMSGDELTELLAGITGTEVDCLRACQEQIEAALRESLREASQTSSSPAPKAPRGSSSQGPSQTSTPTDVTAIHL
Chain of CDK1/CCNB1 (P06493 whole entry): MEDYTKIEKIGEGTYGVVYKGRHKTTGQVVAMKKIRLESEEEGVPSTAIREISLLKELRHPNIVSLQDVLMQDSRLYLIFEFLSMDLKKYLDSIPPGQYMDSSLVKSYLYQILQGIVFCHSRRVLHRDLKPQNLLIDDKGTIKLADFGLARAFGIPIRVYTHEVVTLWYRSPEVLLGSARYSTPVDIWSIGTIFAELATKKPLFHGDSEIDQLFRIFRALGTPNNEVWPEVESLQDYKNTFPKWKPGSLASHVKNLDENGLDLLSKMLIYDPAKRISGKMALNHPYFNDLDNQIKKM
Chain of CDK1/CCNB1 (P14635 whole entry partner): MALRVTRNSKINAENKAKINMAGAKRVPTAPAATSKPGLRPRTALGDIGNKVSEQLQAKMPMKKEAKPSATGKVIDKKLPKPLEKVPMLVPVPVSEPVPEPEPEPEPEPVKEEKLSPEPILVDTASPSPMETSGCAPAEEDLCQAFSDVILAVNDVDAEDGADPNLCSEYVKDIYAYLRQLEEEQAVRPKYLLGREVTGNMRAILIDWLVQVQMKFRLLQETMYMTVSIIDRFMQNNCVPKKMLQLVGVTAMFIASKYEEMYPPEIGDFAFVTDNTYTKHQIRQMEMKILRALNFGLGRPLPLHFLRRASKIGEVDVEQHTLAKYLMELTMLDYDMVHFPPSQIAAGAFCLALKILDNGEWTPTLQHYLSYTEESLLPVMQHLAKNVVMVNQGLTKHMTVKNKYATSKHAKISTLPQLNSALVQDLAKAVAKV
Chain of CDK6/CCND1 (Q00534 whole entry): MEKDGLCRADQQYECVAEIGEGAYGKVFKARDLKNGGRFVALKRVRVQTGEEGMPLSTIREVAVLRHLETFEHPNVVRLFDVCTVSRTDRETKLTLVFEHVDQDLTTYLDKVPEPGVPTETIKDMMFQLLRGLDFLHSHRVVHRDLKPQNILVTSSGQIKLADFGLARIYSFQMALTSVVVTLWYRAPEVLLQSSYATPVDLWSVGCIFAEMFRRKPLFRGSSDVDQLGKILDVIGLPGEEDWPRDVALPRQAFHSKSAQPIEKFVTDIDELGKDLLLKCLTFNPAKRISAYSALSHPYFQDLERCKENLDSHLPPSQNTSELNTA
Chain of CDK6/CCND1 (P24385 whole entry partner): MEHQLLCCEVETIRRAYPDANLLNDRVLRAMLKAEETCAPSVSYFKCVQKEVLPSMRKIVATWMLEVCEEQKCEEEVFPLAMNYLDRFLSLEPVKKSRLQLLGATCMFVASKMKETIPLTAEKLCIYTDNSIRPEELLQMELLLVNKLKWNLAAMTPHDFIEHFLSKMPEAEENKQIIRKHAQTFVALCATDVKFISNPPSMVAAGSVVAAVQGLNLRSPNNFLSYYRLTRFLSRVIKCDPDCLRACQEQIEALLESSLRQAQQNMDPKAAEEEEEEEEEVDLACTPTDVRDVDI

SMILES: CS(=O)(=O)c1ccc(Nc2cc3c(C4CCN(Cc5cccnc5)C4)nccc3cn2)cc1 (racemic) [Ex 232, N-(4-(methylsulfonyl)phenyl)-5-(1-(pyridin-3-ylmethyl)pyrrolidin-3-yl)-2,6-naphthyridin-3-amine]
IC50 [1, 12]: > 250 nM
IC50 [2, 13]: > 250 nM
IC50 [3, 14]: > 250 nM
IC50 [4, 15]: > 250 nM

SMILES: CS(=O)(=O)c1ccc(Nc2cc3c(C#Cc4ccnc(N)c4Cl)nccc3cn2)cc1 [Ex 580, 5-((2-amino-3-chloropyridin-4-yl)ethynyl)-N-(4-(methylsulfonyl)phenyl)-2,6-naphthyridin-3-amine]
IC50 [1, 16]: > 250 nM
IC50 [2, 17]: > 250 nM
IC50 [3, 18]: > 250 nM
IC50 [4, 19]: < 25 nM

SMILES: CS(=O)(=O)c1ccc(Nc2cc3c(C#Cc4ccc(N)nc4)nccc3cn2)cc1 [Ex 584, 5-((6-aminopyridin-3-yl)ethynyl)-N-(4-(methylsulfonyl)phenyl)-2,6-naphthyridin-3-amine]
IC50 [1, 16]: > 250 nM
IC50 [2, 17]: > 250 nM
IC50 [3, 18]: > 250 nM
IC50 [4, 20]: 25 to 250 nM

SMILES: CCC1(CC)C(=O)Nc2cc(C#Cc3nccc4cnc(Nc5ccc(S(=N)(=O)CC)cc5OC)cc34)ccc21 (single isomer, unassigned) [Ex 308, 3,3-diethyl-6-((7-((4-(ethylsulfonimidoyl)-2-methoxyphenyl)amino)-2,6-naphthyridin-1-yl)ethynyl)indolin-2-one]
IC50 [1, 12]: > 250 nM
IC50 [2, 13]: > 250 nM
IC50 [3, 14]: > 250 nM
IC50 ([4]; 25-250 nM marked x, read-out: CDK2/CCNE IC50 25-250 nM): 25 to 250 nM

SMILES: CS(=O)(=O)c1ccc(Nc2cc3c(-c4ccc5c(c4)C(=O)C(=O)N5)nccc3cn2)cc1 [Ex 600, 5-(7-((4-(methylsulfonyl)phenyl)amino)-2,6-naphthyridin-1-yl)indoline-2,3-dione]
IC50 [1, 16]: > 250 nM
IC50 [2, 17]: > 250 nM
IC50 ([3]; x = IC50 25-250 nM, read-out: CDK6/CCND IC50 (25-250 nM)): 25 to 250 nM
IC50 [4, 19]: < 25 nM

SMILES: CS(=O)(=O)c1ccc(Nc2cc3c(C4CCN(S(C)(=O)=O)C4)nccc3cn2)cc1 (racemic) [Ex 235, N-(4-(methylsulfonyl)phenyl)-5-(1-(methylsulfonyl)pyrrolidin-3-yl)-2,6-naphthyridin-3-amine]
IC50 [1, 12]: > 250 nM
IC50 [2, 13]: > 250 nM
IC50 [3, 14]: > 250 nM
IC50 [4, 15]: > 250 nM

SMILES: CS(=O)(=O)c1ccc(Nc2cc3c(C#Cc4cncnc4N)nccc3cn2)cc1 [Ex 492, 5-((4-aminopyrimidin-5-yl)ethynyl)-N-(4-(methylsulfonyl)phenyl)-2,6-naphthyridin-3-amine]
IC50 [1, 16]: > 250 nM
IC50 [2, 17]: > 250 nM
IC50 [3, 18]: > 250 nM
IC50 [4, 20]: 25 to 250 nM

SMILES: CNC(=O)c1ccc(C#Cc2nccc3cnc(Nc4ccc(S(C)(=O)=O)cc4)cc23)cc1 [Ex 634, N-methyl-4-((7-((4-(methylsulfonyl)phenyl)amino)-2,6-naphthyridin-1-yl)ethynyl)benzamide]
IC50 [1, 16]: > 250 nM
IC50 [2, 17]: > 250 nM
IC50 [3, 18]: > 250 nM
IC50 [4, 19]: < 25 nM

SMILES: CS(=O)(=O)c1ccc(Nc2cc3c(C#Cc4ccc(=O)[nH]c4)nccc3cn2)cc1 [Ex 667, 5-((7-((4-(methylsulfonyl)phenyl)amino)-2,6-naphthyridin-1-yl)ethynyl)pyridin-2(1H)-one]
IC50 [1, 21]: 25 to 250 nM
IC50 ([2]; x = IC50 25-250 nM, read-out: CDK4/CCND IC50 (25-250 nM)): 25 to 250 nM
IC50 [3, 18]: > 250 nM
IC50 [4, 19]: < 25 nM

SMILES: Cc1cc(S(C)(=O)=O)ccc1Nc1cc2c(C#Cc3ccc4c(c3)NC(=O)C4(C)C)nccc2cn1 [Ex 424, 3,3-dimethyl-6-((7-((2-methyl-4-(methylsulfonyl)phenyl)amino)-2,6-naphthyridin-1-yl)ethynyl)indolin-2-one]
IC50 [1, 21]: 25 to 250 nM
IC50 [2, 17]: > 250 nM
IC50 [3, 18]: > 250 nM
IC50 [4, 19]: < 25 nM

Next, values leading:

IC50 [1, 5]: > 250 nM
IC50 [2, 6]: > 250 nM
IC50 [3, 7]: > 250 nM
IC50 [4, 8]: 25 to 250 nM
SMILES: CC#Cc1nccc2cnc(Nc3ccc(S(=O)(=O)Nc4nccc(C(F)(F)F)n4)cc3)cc12 [Ex 891, 4-((5-(prop-1-yn-1-yl)-2,6-naphthyridin-3-yl)amino)-N-(4-(trifluoromethyl)pyrimidin-2-yl)benzenesulfonamide]

IC50 [1, 5]: > 250 nM
IC50 [2, 6]: > 250 nM
IC50 [3, 7]: > 250 nM
IC50 [4, 9]: < 25 nM
SMILES: COc1ccc(C(=O)N2CC[C@@H](Nc3cc4c(-c5ccc6c(cnn6CC(C)(C)O)c5C)nccc4cn3)C2)cc1 [Example 790, (R)-(3-((5-(1-(2-hydroxy-2-methylpropyl)-4-methyl-1H-indazol-5-yl)-2,6-naphthyridin-3-yl)amino)pyrrolidin-1-yl)(4-methoxyphenyl)methanone]

IC50 [1, 5]: > 250 nM
IC50 [2, 10]: 25 to 250 nM
IC50 [3, 11]: 25 to 250 nM
IC50 [4, 9]: < 25 nM
SMILES: CCNS(=N)(=O)c1ccc(Nc2cc3c(-c4ccc5c(cnn5CC(O)(C(F)(F)F)C(F)(F)F)c4C)nccc3cn2)cc1 (single isomer, unassigned) [Ex 692, N-ethyl-4-((5-(4-methyl-1-(3,3,3-trifluoro-2-hydroxy-2-(trifluoromethyl)propyl)-1H-indazol-5-yl)-2,6-naphthyridin-3-yl)amino)benzenesulfonimidamide]

IC50 ([1]; 25-250 nM, read-out: CDK1/CCNB IC50, 25-250 nM): 25 to 250 nM
IC50 [2, 6]: > 250 nM
IC50 [3, 11]: 25 to 250 nM
IC50 [4, 9]: < 25 nM
SMILES: Cc1cc(C)nc(NS(=O)(=O)c2ccc(Nc3cc4c(-c5ccc6c(cnn6CC(C)(C)O)c5C)nccc4cn3)cc2)n1 [Ex 926, N-(4,6-dimethylpyrimidin-2-yl)-4-((5-(1-(2-hydroxy-2-methylpropyl)-4-methyl-1H-indazol-5-yl)-2,6-naphthyridin-3-yl)amino)benzenesulfonamide]

IC50 [1, 5]: > 250 nM
IC50 [2, 10]: 25 to 250 nM
IC50 [3, 11]: 25 to 250 nM
IC50 [4, 9]: < 25 nM
SMILES: Cc1c(-c2nccc3cnc(Nc4ccc(S(=O)(=O)NC5CC5)cc4)cc23)ccc2c1cnn2CC(C)(C)O [Ex 794, N-cyclopropyl-4-((5-(1-(2-hydroxy-2-methylpropyl)-4-methyl-1H-indazol-5-yl)-2,6-naphthyridin-3-yl)amino)benzenesulfonamide]

IC50 ([1]; 25-250 nM marked x, read-out: CDK1/CCNB IC50 25-250 nM): 25 to 250 nM
IC50 ([2]; 25-250 nM marked x, read-out: CDK4/CCND IC50 25-250 nM): 25 to 250 nM
IC50 ([3]; 25-250 nM marked x, read-out: CDK6/CCND IC50 25-250 nM): 25 to 250 nM
IC50 ([4]; <25 nM, read-out: CDK2/CCNE IC50 <25 nM): < 25 nM
SMILES: CS(=O)(=O)c1ccc(Nc2cc3c(C4CCCC4)nccc3cn2)cc1 [Example 23, 5-cyclopentyl-N-(4-(methylsulfonyl)phenyl)-2,6-naphthyridin-3-amine]

IC50 [1, 5]: > 250 nM
IC50 [2, 10]: 25 to 250 nM
IC50 [3, 11]: 25 to 250 nM
IC50 [4, 9]: < 25 nM
SMILES: Cc1c(-c2nccc3cnc(Nc4ccc(NS(=O)(=O)c5cnccn5)cc4)cc23)ccc2c1cnn2CC(C)(C)O [Ex 781, N-(4-((5-(1-(2-hydroxy-2-methylpropyl)-4-methyl-1H-indazol-5-yl)-2,6-naphthyridin-3-yl)amino)phenyl)pyrazine-2-sulfonamide]

IC50 [1, 5]: > 250 nM
IC50 [2, 6]: > 250 nM
IC50 [3, 7]: > 250 nM
IC50 [4, 8]: 25 to 250 nM
SMILES: COc1cc(NS(=O)(=O)c2ccc(Nc3cc4c(-c5ccc6c(cnn6CC(O)(C(F)(F)F)C(F)(F)F)c5C)nccc4cn3)cc2)nc(OC)c1 [Ex 742, N-(4,6-dimethoxypyridin-2-yl)-4-((5-(4-methyl-1-(3,3,3-trifluoro-2-hydroxy-2-(trifluoromethyl)propyl)-1H-indazol-5-yl)-2,6-naphthyridin-3-yl)amino)benzenesulfonamide]
